Reference: ChEMBL document CHEMBL5120862, “Novel non-covalent LSD1 inhibitors endowed with anticancer effects in leukemia and solid tumor cellular models” (Eur J Med Chem, 2022)
The source made the active and inactive calls. No cut-off for these calls is given here.

Experiments:
SJRH30 [1] = assay: Antiproliferative activity against human Rh30 cells assessed as inhibition of cell growth incubated for 144 hrs; assay type: functional, cell-based; details: SJRH30, 144 h
SJRH30 [2] = assay: Induction of apoptosis in human Rh30 cells assessed as increase in caspase 3/7 level at 2 uM incubated for 24 hrs; assay type: functional, cell-based
MV4-11 = assay: Antiproliferative activity against human MV4-11 cells assessed as inhibition of cell growth at 1 uM incubated for 144 hrs by trypan blue staining based analysis; assay type: functional
THP-1 = assay: Antiproliferative activity against human THP-1 cells assessed as inhibition of cell growth incubated for 72 hrs by CellTiter-Glo luminescent cell viability assay; assay type: functional, cell-based; details: THP-1, 72 h
SJRH30 [3] = assay: Antiproliferative activity against human Rh30 cells assessed as inhibition of cell growth incubated for 72 hrs; assay type: functional, cell-based; details: SJRH30, 72 h
RD = assay: Antiproliferative activity against human RD cells assessed as inhibition of cell growth incubated for 72 hrs; assay type: functional, cell-based
[4] = target: T1, Histone-lysine N-methyltransferase EHMT2 (Homo sapiens, UniProt Q96KQ7); assay: Inhibition of G9a (unknown origin) assessed as reduction in substrate methylation using histone H3 and SAM as substrate measured after 15 to 60 mins by microfluidic capillary electrophoresis analysis
T1 sequence (Q96KQ7 whole entry): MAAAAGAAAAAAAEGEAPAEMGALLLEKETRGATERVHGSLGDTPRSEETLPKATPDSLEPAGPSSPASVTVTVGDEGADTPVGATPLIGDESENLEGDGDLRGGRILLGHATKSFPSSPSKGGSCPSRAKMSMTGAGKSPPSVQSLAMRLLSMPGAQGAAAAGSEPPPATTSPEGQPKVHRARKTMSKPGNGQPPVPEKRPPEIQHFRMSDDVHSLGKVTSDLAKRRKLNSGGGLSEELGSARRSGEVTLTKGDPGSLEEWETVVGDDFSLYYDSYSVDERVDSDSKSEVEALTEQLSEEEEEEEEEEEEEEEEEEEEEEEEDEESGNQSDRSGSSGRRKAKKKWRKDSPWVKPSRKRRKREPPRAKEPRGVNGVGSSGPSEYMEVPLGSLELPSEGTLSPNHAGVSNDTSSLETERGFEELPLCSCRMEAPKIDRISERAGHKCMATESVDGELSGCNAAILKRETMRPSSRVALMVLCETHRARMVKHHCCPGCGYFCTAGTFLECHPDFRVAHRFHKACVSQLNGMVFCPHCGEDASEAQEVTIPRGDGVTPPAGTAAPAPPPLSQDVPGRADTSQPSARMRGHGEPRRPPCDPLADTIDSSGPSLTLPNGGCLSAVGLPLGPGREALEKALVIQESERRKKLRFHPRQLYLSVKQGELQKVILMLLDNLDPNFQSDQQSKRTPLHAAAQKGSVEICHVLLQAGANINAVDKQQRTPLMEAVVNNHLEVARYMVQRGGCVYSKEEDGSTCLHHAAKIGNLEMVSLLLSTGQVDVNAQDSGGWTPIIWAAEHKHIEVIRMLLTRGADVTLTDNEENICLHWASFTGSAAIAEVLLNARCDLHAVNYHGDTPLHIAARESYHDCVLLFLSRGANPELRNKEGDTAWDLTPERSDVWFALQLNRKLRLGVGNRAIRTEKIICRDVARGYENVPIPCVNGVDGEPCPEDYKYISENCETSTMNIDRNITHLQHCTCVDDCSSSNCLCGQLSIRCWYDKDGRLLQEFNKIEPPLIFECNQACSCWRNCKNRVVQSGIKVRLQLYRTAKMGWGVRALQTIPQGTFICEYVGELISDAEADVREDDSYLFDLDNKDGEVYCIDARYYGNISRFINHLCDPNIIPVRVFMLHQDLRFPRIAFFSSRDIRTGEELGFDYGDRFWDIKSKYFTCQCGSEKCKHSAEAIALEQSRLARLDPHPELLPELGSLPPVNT

[5] = target: Lysine-specific histone demethylase 1A (Homo sapiens) (UniProt O60341); assay: Inhibition of LSD1 in human RD cells assessed as increase in H3K4me2 level at 1 uM incubated for 48 hrs by Western blot analysis; assay type: cell-based

COc1cc2c(NC3CCN(Cc4ccccc4)CC3)nc(NCCCN(C)C)nc2cc1OCc1ccccc1
IC50 (SJRH30 [1]): 0.68 µM | Activity (SJRH30 [2]): Active | inhibition (MV4-11): Active | IC50 (THP-1): 0.17 µM | IC50 (SJRH30 [3]): 0.96 µM | IC50 (RD): 0.85 µM | Ki [4]: 39.4 µM | inhibition [5]: Active
